Measurements from patent US10323019B2, “Pyrazolylaminobenzimidazole derivatives as JAK inhibitors” (Eli Lilly and Company, priority 2016, dated 2019).
Like-named read-outs stand apart in the source and are kept apart here.

Legend:
[1] = biological target: JAK1 (Rattus norvegicus, UniProt G3V9W2); test: Rat PK/PD assay: rat whole blood ex vivo JAK1 activity (pSTAT3); format: in vivo; conditions: 30 mpk oral
Description: (§1) Male Wistar rats, 265-285 grams (Charles River) were used for oral gavage dosing. Dose the animals (Oral gavage) at 1.82 mL/kg (0.5 mL per 275 grams). Formulate the compounds in 1% HEC vehicle containing 0.25% Tween 80 and 0.05% antifoam with 1.1 molar equivalent of methanesulfonic acid to form an in situ salt. Formulate compounds once per week, and store at 4° C. At various time points, obtain rat whole blood via tail vain bleeding in Multivette 600 μl EDTA blood collection tubes (cat#151671100PK100, Sarstedt Inc) and use for ex vivo JAK1 and JAK2 assay. Aliquot 100 ul of blood from each rat into a 96-well round bottom plate. Stimulate whole blood by recombinant IL-6 ([…], and recombinant mouse GM-CSF (cat#415-ML, lot#, R&D) for 12 min at rt. After cytokine stimulation, add whole blood into Lyse/fix (cat#558049, lot#, BD) in minitube rack; mix well 5×. Incubate 10 min at rt. Spin minitube rack at 600 g for 4 min. Aspirate with 12-channel manifold. Transfer contents of minitube rack to 96 well round-bottom plates. Spin down the cells at 3000 rpm for 1 min and discard the supernatant. Mix the cells in the well with 100 ul ice-cold MeOH and incubated on ice for 30 min. Add 150 ul PBS+2% FCS into each well and spin down at 3000 rpm, 2 min. Wash cells with 2× of 250 ul PBS+2% FCS. For cell surface and intracellular staining, mix all antibodies and add into each well and incubate 1 hr at rt in dark. The antibodies used for staining are as following: pSTAT3, Alexa Fluor 647 (cat#4324s, lot, Cell Signaling); pSTAT5, Alexa Fluor 488 (cat#3939s, lot#, Cell Signaling), anti-rat CD4, V450 (cat#561579, lot#. BD); anti-rat CD11b, Percp eFluor710 (cat#12-0110-82, lot#, eBioscience) After staining cells with Abs, wash the plates twice with PBS+2% FCS and finally re-suspend in the same 150 ul of solution. Assess cell viability by Viability Dye 780 (cat#65-0865-14, lot#, eBioscience). Perform the cytometry assay using FORTESSA.

[2] = biological target: JAK2 (Homo sapiens (Human), UniProt O60674); test: Human whole blood assay: pSTAT5 (JAK2) in monocytes, GM-CSF stimulated; format: cell-based; conditions: pSTAT5 in CD4Low CD33Hi monocytes
From the text: Human Whole Blood Assays: Determination of pSTAT3 (JAK1) and pSTAT5 (JAK2) in Lymphocytes and Monocytes
Human whole blood (HWB) assays were developed and validated to determine the JAK1 and JAK2 selectivity of test compounds.
Dilute the test compounds, 10 points, (1:3) in DMSO 100% and a step down in PBS+0.1% BSA. Use Tofacitinib as a reference compound in each plate, as well as a maximum signal (stimulated wells) and a minimum signal (no stimulated wells) in order to normalize data. Obtain a pool of HWB from 4 different healthy donors. Plate the blood in a 96 well plate using a Tecan Evo 96w and incubate with test compounds for 1 h at RT. After this time of incubation, stimulate HWB with both IL6 (206-IL, R&D System) and GM-CSF (PHC2015, Life Technologies) for 15 more minutes. Add a viability dye (65-0865, eBiosicience) (1:1000) using a Tecan Evo 96w (5×mix).
The final concentrations in the assay are the following: 100 (μM for compounds, 50 μM for Tofacitinib, 0.1 μg/mL IL6, 0.038 μg/mL GM-CSF and 1% DMSO. Lyse and fix HWB using a Lyse/fix buffer (558049, Becton Dickinson) by adding 900 μL of lysis buffer using Tecan Evo 96w (mix 10× high speed). Incubate HWB in bath at 37° C. for 10 minutes. Centrifuge HWB at 500 G, 8 min and discard supernatant. Add cold MeOH using a Tecan Exo 96w in order to permeabilize cells. Incubate blood cells on ice during 30 min. After this, wash cells 2× using Staining buffer (554656, Becton Dickinson), spin at 3000 rpm, 2 min. discard supernatant, and add the following antibodies: Anti-Human CD4 PE, 1:100 (12-0048, eBioscience), Anti-Human CD33 eFluor® 450, 1:50 (48-0337, eBioscience), Phospho-STAT5 (Tyr694) (C71E5) Rabbit mAb, 1:100 (Alexa Fluor® 488 Conjugate) (3939, Cell Signaling) and Phospho-STAT3 (Tyr705) (D3A7) XP™ Rabbit mAb 1:200, (Alexa Fluor® 647 Conjugate) (4324, Cell Signaling). Incubate the antibodies for 1 h in dark at RT, then wash cells 2× and read on Cytometer Macsquant (Miltenyi Biotec). Gate the data on CD4+ (lymphocytes) and CD4Low CD33Hi (monocytes), to measure the fluorescence intensity from cells expressing pSTAT3 and pSTAT5, respectively. Analyze the data using FlowJo v 10 and then normalize the median of fluorescence versus maximum and minimum signal to determine the IC50s. Use Graph Pad Prism 5™ to represent the dose response curves.

[3] = biological target: JAK1 (Homo sapiens (Human), UniProt P23458); test: JAK LanthaScreen Kinase Assay (TR-FRET), JAK1 in vitro enzyme assay; format: biochemical; conditions: 20.0 μM ATP
Description: The JAK LanthaScreen™ Kinase Assay (Invitrogen) is used to determine the ability of test compounds to inhibit JAK1, JAK2, and JAK3 kinase activity. These are TR-FRET assay formats that use long-lifetime terbium labeled antibody as the donor species and GFP-STAT1 as the acceptor species. Use the TR-FRET ratio to monitor JAK kinase activity where an increase in phosphorylation of the GFP-STAT1 results in an increase in the TR-FRET ratio. Perform the kinase reaction using a 12.5 μl reaction volume in shallow black 384-well Proxiplate®. Add reagents to obtain final reaction conditions of […], 1.76 mM Triton X-100, ATP (20.0 μM for JAK1 and JAK3 or 5 μM for JAK2) enzyme assays, 10.0 mM MgCl2, 1 mM EGTA and 0.01% Brij-35, […] GFP-STAT1, 14 nM JAK1 enzyme for JAK1, 1.0 nM for JAK2 or 2.5 nM for JAK3 enzyme assays, and 4% DMSO and serial dilutions of test compound (diluted 1:3 from 20,000 to 1 nM). Following ATP/GFP-STAT1 addition, centrifuge the assay plates for 1 minute at 1000 revolutions per minute (RPM). Allow the plates to incubate at RT for 60 minutes and then add 12.5 μl of a stopping buffer containing 20 mM EDTA, 2 nM Terbium-anti-phosphorylated Signal Transducers and Activators of Transcription [phosphorylation Tyrosine 701 amino acid] […] Use ACTIVITYBASE® 4.0 to fit the percent inhibition and ten-point compound concentration data to a four-parameter logistic equation.

[4] = biological target: JAK2 (Rattus norvegicus (Rat), UniProt Q62689); test: Rat PK/PD assay: rat whole blood ex vivo JAK2 activity (pSTAT5); format: in vivo; conditions: 30 mpk oral
Description: as §1

Chain of JAK1 (Rattus norvegicus, UniProt G3V9W2) (G3V9W2 1-1153): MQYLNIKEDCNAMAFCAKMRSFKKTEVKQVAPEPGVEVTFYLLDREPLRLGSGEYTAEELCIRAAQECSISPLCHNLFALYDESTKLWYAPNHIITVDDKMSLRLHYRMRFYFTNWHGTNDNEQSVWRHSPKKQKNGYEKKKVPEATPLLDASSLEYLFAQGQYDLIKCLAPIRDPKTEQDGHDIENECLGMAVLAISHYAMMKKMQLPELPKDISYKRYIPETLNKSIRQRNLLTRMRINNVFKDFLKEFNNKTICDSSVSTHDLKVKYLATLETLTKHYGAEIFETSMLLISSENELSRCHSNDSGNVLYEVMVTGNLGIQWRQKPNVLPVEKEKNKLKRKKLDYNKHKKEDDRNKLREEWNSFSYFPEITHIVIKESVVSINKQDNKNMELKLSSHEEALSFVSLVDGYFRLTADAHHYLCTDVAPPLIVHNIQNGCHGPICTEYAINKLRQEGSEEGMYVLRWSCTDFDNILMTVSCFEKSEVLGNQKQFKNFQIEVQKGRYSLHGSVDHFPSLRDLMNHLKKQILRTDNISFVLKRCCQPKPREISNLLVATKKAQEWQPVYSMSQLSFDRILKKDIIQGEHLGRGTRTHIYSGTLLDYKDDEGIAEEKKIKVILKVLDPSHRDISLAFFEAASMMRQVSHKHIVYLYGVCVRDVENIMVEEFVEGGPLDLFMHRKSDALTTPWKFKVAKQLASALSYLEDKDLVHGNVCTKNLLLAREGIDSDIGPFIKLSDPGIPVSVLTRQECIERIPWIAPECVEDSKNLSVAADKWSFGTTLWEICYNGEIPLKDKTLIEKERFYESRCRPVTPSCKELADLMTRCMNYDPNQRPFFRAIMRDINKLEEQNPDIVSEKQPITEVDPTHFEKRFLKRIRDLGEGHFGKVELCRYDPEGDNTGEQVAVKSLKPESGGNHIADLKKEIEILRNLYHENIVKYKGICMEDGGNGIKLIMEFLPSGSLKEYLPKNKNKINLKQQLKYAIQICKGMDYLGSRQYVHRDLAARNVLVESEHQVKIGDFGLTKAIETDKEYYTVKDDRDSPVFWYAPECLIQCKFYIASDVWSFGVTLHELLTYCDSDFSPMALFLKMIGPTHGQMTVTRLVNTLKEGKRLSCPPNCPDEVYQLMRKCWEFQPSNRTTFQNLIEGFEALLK
Chain of JAK2 (Rattus norvegicus (Rat), UniProt Q62689) (Q62689 whole entry): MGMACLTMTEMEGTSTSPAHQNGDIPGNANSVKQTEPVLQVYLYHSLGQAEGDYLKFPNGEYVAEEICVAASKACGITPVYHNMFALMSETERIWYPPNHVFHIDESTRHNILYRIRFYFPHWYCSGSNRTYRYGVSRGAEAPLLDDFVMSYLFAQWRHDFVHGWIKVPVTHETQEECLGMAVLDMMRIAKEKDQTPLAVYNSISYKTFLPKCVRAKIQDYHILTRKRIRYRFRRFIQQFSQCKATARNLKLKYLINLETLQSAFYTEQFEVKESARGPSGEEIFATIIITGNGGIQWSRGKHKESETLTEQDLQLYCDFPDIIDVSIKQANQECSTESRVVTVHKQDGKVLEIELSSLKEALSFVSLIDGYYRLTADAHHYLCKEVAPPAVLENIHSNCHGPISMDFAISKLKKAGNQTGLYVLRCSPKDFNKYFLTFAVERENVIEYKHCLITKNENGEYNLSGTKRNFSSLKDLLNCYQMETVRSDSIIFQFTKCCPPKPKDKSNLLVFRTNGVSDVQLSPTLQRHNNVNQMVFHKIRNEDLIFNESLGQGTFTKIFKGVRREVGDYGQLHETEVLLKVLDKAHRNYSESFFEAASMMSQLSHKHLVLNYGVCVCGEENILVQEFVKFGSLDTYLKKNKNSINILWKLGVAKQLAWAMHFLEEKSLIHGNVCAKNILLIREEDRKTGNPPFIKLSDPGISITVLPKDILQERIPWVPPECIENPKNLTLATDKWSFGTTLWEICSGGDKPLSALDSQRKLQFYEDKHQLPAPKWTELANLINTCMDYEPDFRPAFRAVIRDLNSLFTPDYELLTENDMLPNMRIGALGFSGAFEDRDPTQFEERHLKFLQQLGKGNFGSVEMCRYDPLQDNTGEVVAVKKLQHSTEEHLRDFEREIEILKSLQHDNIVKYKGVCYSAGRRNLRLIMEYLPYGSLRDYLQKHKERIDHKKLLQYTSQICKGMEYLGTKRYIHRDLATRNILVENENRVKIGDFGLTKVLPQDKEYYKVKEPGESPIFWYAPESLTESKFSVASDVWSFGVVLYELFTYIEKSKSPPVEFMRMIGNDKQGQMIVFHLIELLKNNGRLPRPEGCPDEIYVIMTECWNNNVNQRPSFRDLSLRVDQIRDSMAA
Chain of JAK1 (Homo sapiens (Human), UniProt P23458) (P23458 whole entry): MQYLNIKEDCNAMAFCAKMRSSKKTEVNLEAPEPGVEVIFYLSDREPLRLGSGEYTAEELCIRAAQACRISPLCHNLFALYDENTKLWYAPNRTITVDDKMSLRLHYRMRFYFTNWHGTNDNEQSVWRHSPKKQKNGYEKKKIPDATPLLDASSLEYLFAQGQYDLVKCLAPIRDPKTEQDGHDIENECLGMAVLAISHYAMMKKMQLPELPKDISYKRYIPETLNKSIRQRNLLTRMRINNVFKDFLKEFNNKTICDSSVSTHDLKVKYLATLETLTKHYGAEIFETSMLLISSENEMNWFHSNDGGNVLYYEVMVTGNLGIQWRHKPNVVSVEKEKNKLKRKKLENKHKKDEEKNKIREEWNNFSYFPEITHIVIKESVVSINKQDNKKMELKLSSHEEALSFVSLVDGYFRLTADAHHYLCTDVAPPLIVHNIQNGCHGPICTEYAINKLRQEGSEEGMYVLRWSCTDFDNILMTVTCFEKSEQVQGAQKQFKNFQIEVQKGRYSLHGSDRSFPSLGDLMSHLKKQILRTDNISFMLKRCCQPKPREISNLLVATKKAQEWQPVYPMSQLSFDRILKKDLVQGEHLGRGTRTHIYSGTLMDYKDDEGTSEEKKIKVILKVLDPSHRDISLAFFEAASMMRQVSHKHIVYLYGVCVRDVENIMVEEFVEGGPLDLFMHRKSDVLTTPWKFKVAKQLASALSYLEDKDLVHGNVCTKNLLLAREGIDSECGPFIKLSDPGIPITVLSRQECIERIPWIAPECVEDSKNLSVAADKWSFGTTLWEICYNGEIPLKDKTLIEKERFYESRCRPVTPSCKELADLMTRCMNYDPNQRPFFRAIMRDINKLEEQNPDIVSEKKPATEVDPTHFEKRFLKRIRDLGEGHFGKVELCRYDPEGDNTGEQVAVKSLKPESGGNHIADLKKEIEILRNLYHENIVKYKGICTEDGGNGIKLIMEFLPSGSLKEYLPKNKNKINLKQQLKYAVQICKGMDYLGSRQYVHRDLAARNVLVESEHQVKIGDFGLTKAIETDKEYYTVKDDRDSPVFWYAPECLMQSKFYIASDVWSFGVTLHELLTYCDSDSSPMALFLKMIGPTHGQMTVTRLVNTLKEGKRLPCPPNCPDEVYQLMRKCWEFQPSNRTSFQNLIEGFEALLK
Chain of JAK2 (Homo sapiens (Human), UniProt O60674) (O60674 whole entry): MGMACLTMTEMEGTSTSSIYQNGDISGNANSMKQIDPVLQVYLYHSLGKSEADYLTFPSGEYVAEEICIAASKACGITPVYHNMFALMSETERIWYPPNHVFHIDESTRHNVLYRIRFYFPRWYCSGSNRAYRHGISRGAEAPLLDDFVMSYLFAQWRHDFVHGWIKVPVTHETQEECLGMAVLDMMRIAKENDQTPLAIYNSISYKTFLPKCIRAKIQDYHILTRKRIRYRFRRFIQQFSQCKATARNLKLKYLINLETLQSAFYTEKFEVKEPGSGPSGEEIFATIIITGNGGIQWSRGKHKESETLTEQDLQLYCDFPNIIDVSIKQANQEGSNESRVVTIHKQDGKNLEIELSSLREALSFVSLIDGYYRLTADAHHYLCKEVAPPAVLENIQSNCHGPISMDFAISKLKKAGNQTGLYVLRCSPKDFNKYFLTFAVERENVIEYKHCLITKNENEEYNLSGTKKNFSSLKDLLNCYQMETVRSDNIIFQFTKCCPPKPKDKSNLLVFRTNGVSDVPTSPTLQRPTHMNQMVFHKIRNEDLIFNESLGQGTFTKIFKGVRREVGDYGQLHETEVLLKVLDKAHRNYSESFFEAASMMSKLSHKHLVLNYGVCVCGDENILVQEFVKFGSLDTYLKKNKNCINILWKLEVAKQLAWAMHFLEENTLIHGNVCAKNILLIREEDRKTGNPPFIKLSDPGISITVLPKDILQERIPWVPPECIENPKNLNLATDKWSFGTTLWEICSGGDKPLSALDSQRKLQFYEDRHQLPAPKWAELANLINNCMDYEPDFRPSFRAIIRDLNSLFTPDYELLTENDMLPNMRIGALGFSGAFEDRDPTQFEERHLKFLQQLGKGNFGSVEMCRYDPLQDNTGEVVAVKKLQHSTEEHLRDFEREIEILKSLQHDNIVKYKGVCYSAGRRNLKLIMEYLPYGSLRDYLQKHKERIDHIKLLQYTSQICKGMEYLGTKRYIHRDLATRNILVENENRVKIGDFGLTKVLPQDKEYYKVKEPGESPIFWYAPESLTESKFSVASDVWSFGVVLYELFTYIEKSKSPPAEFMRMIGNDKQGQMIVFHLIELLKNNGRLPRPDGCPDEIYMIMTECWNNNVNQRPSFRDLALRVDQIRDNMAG

Work on `COc1cc(Nc2cc(O[C@H]3CC[C@@H](NC[C@@H](O)C(F)(F)F)CC3)cc3c2ncn3C)nn1C` [Example 6, (2R)-1,1,1-Trifluoro-3-{[cis-4-({4-[(5-methoxy-1-methyl-1H-pyrazol-3-yl)amino]-1-methyl-1H-benzimidazol-6-yl}oxy)cyclohexyl]amino}propan-2-ol] yielded an inhibition at 30 mg/kg ([1]; 2 hr post dosing, read-out: JAK1 inhibition 2 hr post dosing) of 83.5%, an inhibition at 30 mg/kg ([1]; 7 hr post dosing, read-out: JAK1 inhibition 7 hr post dosing) of 75.4% and an IC50 [2] of 20.3 ± 6.3 µM. It also gave an IC50 [3] of 0.00525 ± 0.00111 µM, an inhibition at 30 mg/kg ([4]; 2 hr post dosing, read-out: JAK2 inhibition 2 hr post dosing) of 17.7% and an inhibition at 30 mg/kg ([4]; 7 hr post dosing, read-out: JAK2 inhibition 7 hr post dosing) of 17.4%.
